# Tested on: MMP-7 deficient corneal epithelial cells co-infected with CFB-EGSH-MMP-7 and FB-ERV retroviruses (ecdysone receptor)
# Experiment: Ponasterone A induction of MMP-7 expression in co-infected corneal epithelial cells (immunohistochemistry)
# Format: cell-based, mouse
# Settings: 10 μM ponasterone A; two days after induction; induced vs non-induced infected cells
# From the text: A cDNA encoding mouse pro matrix metalloproteinase-7 (MMP-7) was obtained from the I.M.A.G.E. clone consortium. Using a PCR-based cloning strategy, the cDNA was inserted into the multiple cloning site of pCFP-EGSH (a plasmid vector including retroviral packaging signals and a multiple cloning site downstream of an ecdysone hormone receptor responsive promoter) to make plasmid pCFB-EGSH-MMP-7. A second plasmid used in these experiments was pFB-ERV, a plasmid vector with retroviral packaging signals, and expressing the constituents of functional ecdysone hormone receptors capable of binding ponasterone A and activating the ecdysone responsive promoter in pCFP-EGSH.
# Replication deficient retroviral supematants from pCGB-EGSH-MMP-7 and […] were produced separately. The plasmid for pCFB-EGSH-MMP-7 or pFB-EGSH was co-transfected using a liposomal method into HEK293 cells along with the plasmids pEnv (expressing a retroviral ecotropic envelope protein) and pGag-Pol (expressing the gag and pol genes required for assembly of infectious retroviral particles). […]
# MMP-7 deficient corneal epithelial cells co-infected with CFB-EGSH-MMP-7 and FB-ERV replication deficient retroviruses were induced with 10 μM ponasterone A. an ecdysone analog and a ligand for the ecdysone receptor. […] Immunolocalization was determined using epifluorescence microscopy.
structure (smiles),measurement,value
CC(C)CC[C@@H](O)[C@](C)(O)[C@H]1CC[C@@]2(O)C3=CC(=O)[C@@H]4C[C@@H](O)[C@@H](O)C[C@]4(C)[C@H]3CC[C@]12C [ponasterone A],"Expression of MMP-7 (immunolocalization, epifluorescence microscopy)",Expression of MMP-7 was seen only in infected epithelial cells induced with ponasterone A

# Source: patent US20050106729A1, “Gene transfer methods and compositions” (priority 2002, published 2005)
